The text below walks through data of patent publication US9273057B2 (Bristol-Myers Squibb Company, priority 2012, dated 2016).

The target in the test is CK2A1 (CK2α/β) (Homo sapiens, UniProt P68400). The test can be described thus: CK2 kinase assay, CK2A1 (CK2α/β). Type of test: biochemical. As to conditions: Table A; read-out: CK2A1 (CK2α/β) (IC50).
CK2A1 (CK2α/β), sequence (P68400 whole entry, species assumed): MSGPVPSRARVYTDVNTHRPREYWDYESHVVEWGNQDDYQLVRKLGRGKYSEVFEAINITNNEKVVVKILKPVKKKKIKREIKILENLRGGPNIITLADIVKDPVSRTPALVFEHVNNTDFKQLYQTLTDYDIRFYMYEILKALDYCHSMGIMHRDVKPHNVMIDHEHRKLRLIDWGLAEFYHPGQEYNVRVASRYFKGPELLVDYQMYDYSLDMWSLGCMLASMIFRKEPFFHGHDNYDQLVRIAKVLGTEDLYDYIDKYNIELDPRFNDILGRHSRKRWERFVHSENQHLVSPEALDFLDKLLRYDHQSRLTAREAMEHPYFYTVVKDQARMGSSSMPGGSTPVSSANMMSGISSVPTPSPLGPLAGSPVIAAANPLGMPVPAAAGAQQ
CK2A1 (CK2α/β), sequence (P67870 whole entry partner, species assumed): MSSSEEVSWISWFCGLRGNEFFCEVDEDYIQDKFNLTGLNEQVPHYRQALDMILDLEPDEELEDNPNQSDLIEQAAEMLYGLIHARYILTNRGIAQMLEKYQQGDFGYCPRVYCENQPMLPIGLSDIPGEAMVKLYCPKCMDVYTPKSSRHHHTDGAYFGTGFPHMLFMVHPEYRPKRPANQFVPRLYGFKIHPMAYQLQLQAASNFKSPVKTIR
As for `N#Cc1cc(CN2CCC3(CC2)COC3)c(Cl)c(Nc2nc(NC3CC3)c3ncc(C#N)n3n2)c1` [Example 665, 2-((3-(2-oxa-7-azaspiro[3.5]nonan-7-ylmethyl)-2-chloro-5-cyanophenyl)amino)-4-(cyclopropylamino)imidazo[2,1-f][1,2,4]triazine-7-carbonitrile], the IC50 is 0.67 nM.
In the case of `N#Cc1cc(CN2CCNC(=O)C2)c(Cl)c(Nc2nc(NC3CC3)c3ncc(C#N)n3n2)c1` [Example 666, 2-((2-chloro-5-cyano-3-((3-oxopiperazin-1-yl)methyl)phenyl)amino)-4-(cyclopropylamino)imidazo[2,1-f][1,2,4]triazine-7-carbonitrile], the IC50 worked out at 0.3 nM.
In the case of `CN(C)Cc1cc(C#N)cc(Nc2nc(NC3CC3)c3ncc(C#N)n3n2)c1Cl` [Example 667, 2-((2-chloro-5-cyano-3-((dimethylamino)methyl)phenyl)amino)-4-(cyclopropylamino)imidazo[2,1-f][1,2,4]triazine-7-carbonitrile], the IC50 came to 0.65 nM.
The value for `N#Cc1cc(CN2CCNCC2)c(Cl)c(Nc2nc(NC3CC3)c3ncc(C#N)n3n2)c1` [Example 668, 2-((2-chloro-5-cyano-3-(piperazin-1-ylmethyl)phenyl)amino)-4-(cyclopropylamino)imidazo[2,1-f][1,2,4]triazine-7-carbonitrile] was 0.76 nM.
For the molecule `N#Cc1cc(CN2CCNCC(O)C2)c(Cl)c(Nc2nc(NC3CC3)c3ncc(C#N)n3n2)c1` (stereo not drawn) [Example 669, 2-((2-chloro-5-cyano-3-((6-hydroxy-1,4-diazepan-1-yl)methyl)phenyl)amino)-4-(cyclopropylamino)imidazo[2,1-f][1,2,4]triazine-7-carbonitrile], the IC50 came to 0.52 nM.
The value for `CN1CCN(Cc2cc(C#N)cc(Nc3nc(NC4CC4)c4ncc(C#N)n4n3)c2Cl)CC1` [Example 670, 2-((2-chloro-5-cyano-3-((4-methylpiperazin-1-yl)methyl)phenyl)amino)-4-(cyclopropylamino)imidazo[2,1-f][1,2,4]triazine-7-carbonitrile] was 0.76 nM; that for `N#Cc1cc(CN2CCS(=O)(=O)CC2)c(Cl)c(Nc2nc(NC3CC3)c3ncc(C#N)n3n2)c1` [Example 671, 2-((2-chloro-5-cyano-3-((1,1-dioxidothiomorpholino)methyl)phenyl)amino)-4-(cyclopropylamino)imidazo[2,1-f][1,2,4]triazine-7-carbonitrile] was 1.71 nM; that for `N#Cc1cc(CN2CCC(O)CC2)c(Cl)c(Nc2nc(NC3CC3)c3ncc(C#N)n3n2)c1` [Example 672, 2-((2-chloro-5-cyano-3-((4-hydroxypiperidin-1-yl)methyl)phenyl)amino)-4-(cyclopropylamino)imidazo[2,1-f][1,2,4]triazine-7-carbonitrile] was 0.62 nM.
In the case of `N#Cc1cc(CN2CC(O)C2)c(Cl)c(Nc2nc(NC3CC3)c3ncc(C#N)n3n2)c1` [Example 673, 2-((2-chloro-5-cyano-3-((3-hydroxyazetidin-1-yl)methyl)phenyl)amino)-4-(cyclopropylamino)imidazo[2,1-f][1,2,4]triazine-7-carbonitrile] it was 0.49 nM; in that of `CC(C)(CO)NCc1cc(C#N)cc(Nc2nc(NC3CC3)c3ncc(C#N)n3n2)c1Cl` [Example 674, 2-((2-chloro-5-cyano-3-(((1-hydroxy-2-methylpropan-2-yl)amino)methyl)phenyl)amino)-4-(cyclopropylamino)imidazo[2,1-f][1,2,4]triazine-7-carbonitrile], 1.74 nM.
For the molecule `CC(=O)c1cc(C#N)cc(Nc2nc(NC3CC3)c3ncc(C#N)n3n2)c1Cl` [Example 675, 2-((3-acetyl-2-chloro-5-cyanophenyl)amino)-4-(cyclopropylamino)imidazo[2,1-f][1,2,4]triazine-7-carbonitrile], the IC50 came to 0.24 nM.
In the case of `CC(C)(O)c1cc(C#N)cc(Nc2nc(NC3CC3)c3ncc(C#N)n3n2)c1Cl` [Example 676, 2-((2-chloro-5-cyano-3-(2-hydroxypropan-2-yl)phenyl)amino)-4-(cyclopropylamino)imidazo[2,1-f][1,2,4]triazine-7-carbonitrile], the IC50 stood at 0.41 nM.
